Measured values taken from patent US9260439B2, “Dihydropyrrolopyrimidine derivatives” (PFIZER INC., priority 2014, dated 2016).

target: truncated PI3Kα (p110α/iSH2 p85α) (Homo sapiens (Human), UniProt P42336); assay: PI3KA_Act fluorescence polarization kinase assay (Ki); type: biochemical; settings: 1 mM ATP
How it was run: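 p110α/iSH2 p85α (0.5 nM) was reacted with 30 μM sonicated PIP2 in 50 mM HEPES pH 7.4, 150 mM NaCl, 5 mM MgCl2, 1 mM DTT and 0.05% CHAPS for 30 min at room temperature, then stopped with EDTA. PIP3 was detected by fluorescence polarization (GST-Grp1 PH domain/TAMRA-PIP3), and Ki came from a Morrison tight-binding fit.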

Chain of truncated PI3Kα (p110α/iSH2 p85α) (P42336 whole entry, the tested form may be a part): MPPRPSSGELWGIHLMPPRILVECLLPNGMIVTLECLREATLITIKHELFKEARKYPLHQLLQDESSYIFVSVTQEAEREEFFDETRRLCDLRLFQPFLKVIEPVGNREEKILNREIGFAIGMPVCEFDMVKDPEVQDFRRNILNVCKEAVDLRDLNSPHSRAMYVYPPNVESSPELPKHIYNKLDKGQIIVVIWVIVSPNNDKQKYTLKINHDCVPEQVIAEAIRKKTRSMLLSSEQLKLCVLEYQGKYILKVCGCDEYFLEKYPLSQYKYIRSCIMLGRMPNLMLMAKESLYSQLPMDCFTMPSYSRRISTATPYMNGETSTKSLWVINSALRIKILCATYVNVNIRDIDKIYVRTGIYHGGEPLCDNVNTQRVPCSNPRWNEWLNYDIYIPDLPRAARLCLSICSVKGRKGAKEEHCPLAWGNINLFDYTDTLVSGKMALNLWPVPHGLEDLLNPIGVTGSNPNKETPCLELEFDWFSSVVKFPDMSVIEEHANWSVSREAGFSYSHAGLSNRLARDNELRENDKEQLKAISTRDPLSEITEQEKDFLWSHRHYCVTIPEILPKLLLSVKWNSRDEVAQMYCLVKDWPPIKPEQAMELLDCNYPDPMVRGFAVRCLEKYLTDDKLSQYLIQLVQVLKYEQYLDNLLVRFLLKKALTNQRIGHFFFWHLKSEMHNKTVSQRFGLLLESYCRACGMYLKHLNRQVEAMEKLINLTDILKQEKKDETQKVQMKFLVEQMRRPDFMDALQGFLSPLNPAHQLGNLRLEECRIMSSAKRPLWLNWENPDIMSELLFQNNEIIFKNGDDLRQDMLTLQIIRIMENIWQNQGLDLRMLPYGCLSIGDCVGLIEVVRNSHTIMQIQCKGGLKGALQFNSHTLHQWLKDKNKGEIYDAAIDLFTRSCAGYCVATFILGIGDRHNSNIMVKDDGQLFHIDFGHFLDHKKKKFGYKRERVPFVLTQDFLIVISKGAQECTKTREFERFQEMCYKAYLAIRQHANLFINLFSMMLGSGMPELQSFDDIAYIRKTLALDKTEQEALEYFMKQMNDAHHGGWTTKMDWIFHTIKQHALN

Question: Which “PI3KA_Act Ki” value does the source give for `CC(C)C(=O)N1CC[C@@](C)(N2CCc3c(-c4cnc(N)nc4)nc(N4CCOCC4)nc32)C1` [Example 263, 1-{(3R)-3-[4-(2-aminopyrimidin-5-yl)-2-(morpholin-4-yl)-5,6-dihydro-7H-pyrrolo[2,3-d]pyrimidin-7-yl]-3-methylpyrrolidin-1-yl}-2-methylpropan-1-one] here?
Answer: 0.122 nM

Question: For `CC(C)(C)C(=O)N1CC[C@](C)(N2CCc3c(-c4cnc(N)nc4)nc(N4CCOCC4)nc32)C1` [Example 264, 1-{(3S)-3-[4-(2-aminopyrimidin-5-yl)-2-(morpholin-4-yl)-5,6-dihydro-7H-pyrrolo[2,3-d]pyrimidin-7-yl]-3-methylpyrrolidin-1-yl}-2,2-dimethylpropan-1-one], which “PI3KA_Act Ki” value is on record?
Answer: <0.018 nM

Question: How did the “PI3KA_Act Ki” value turn out when `C[C@]1(N2CCc3c(-c4cnc(N)nc4)nc(N4CCOCC4)nc32)CCN(C(=O)CC#N)C1` [Example 265, 3-{(3S)-3-[4-(2-aminopyrimidin-5-yl)-2-(morpholin-4-yl)-5,6-dihydro-7H-pyrrolo[2,3-d]pyrimidin-7-yl]-3-methylpyrrolidin-1-yl}-3-oxopropanenitrile] was run?
Answer: 0.048 nM

Question: For `C[C@@]1(N2CCc3c(-c4cnc(N)nc4)nc(N4CCOCC4)nc32)CCN(C(=O)CC#N)C1` [Example 266, 3-{(3R)-3-[4-(2-aminopyrimidin-5-yl)-2-(morpholin-4-yl)-5,6-dihydro-7H-pyrrolo[2,3-d]pyrimidin-7-yl]-3-methylpyrrolidin-1-yl}-3-oxopropanenitrile], which “PI3KA_Act Ki” value is on record?
Answer: 0.139 nM

Question: With `C[C@@H](O)C(=O)N1CC[C@](C)(N2CCc3c(-c4cnc(N)nc4)nc(N4CCOCC4)nc32)C1` [Example 267, (2R)-1-{(3S)-3-[4-(2-aminopyrimidin-5-yl)-2-(morpholin-4-yl)-5,6-dihydro-7H-pyrrolo[2,3-d]pyrimidin-7-yl]-3-methylpyrrolidin-1-yl}-2-hydroxypropan-1-one] as the compound, how does the “PI3KA_Act Ki” value read?
Answer: 0.041 nM

Question: For `C[C@H](O)C(=O)N1CC[C@](C)(N2CCc3c(-c4cnc(N)nc4)nc(N4CCOCC4)nc32)C1` [Example 268, (2S)-1-{(3S)-3-[4-(2-aminopyrimidin-5-yl)-2-(morpholin-4-yl)-5,6-dihydro-7H-pyrrolo[2,3-d]pyrimidin-7-yl]-3-methylpyrrolidin-1-yl}-2-hydroxypropan-1-one], which “PI3KA_Act Ki” value is on record?
Answer: 0.100 nM

Question: With `C[C@@H](O)C(=O)N1CC[C@@](C)(N2CCc3c(-c4cnc(N)nc4)nc(N4CCOCC4)nc32)C1` [Example 269, (2R)-1-{(3R)-3-[4-(2-aminopyrimidin-5-yl)-2-(morpholin-4-yl)-5,6-dihydro-7H-pyrrolo[2,3-d]pyrimidin-7-yl]-3-methylpyrrolidin-1-yl}-2-hydroxypropan-1-one] as the compound, how does the “PI3KA_Act Ki” value read?
Answer: 0.222 nM

Question: For `C[C@H](O)C(=O)N1CC[C@@](C)(N2CCc3c(-c4cnc(N)nc4)nc(N4CCOCC4)nc32)C1` [Example 270, (2S)-1-{(3R)-3-[4-(2-aminopyrimidin-5-yl)-2-(morpholin-4-yl)-5,6-dihydro-7H-pyrrolo[2,3-d]pyrimidin-7-yl]-3-methylpyrrolidin-1-yl}-2-hydroxypropan-1-one], which “PI3KA_Act Ki” value is on record?
Answer: 0.074 nM

Question: For `CC(C)[C@@H](O)C(=O)N1CC[C@](C)(N2CCc3c(-c4cnc(N)nc4)nc(N4CCOCC4)nc32)C1` [Example 271, (2R)-1-{(3S)-3-[4-(2-aminopyrimidin-5-yl)-2-(morpholin-4-yl)-5,6-dihydro-7H-pyrrolo[2,3-d]pyrimidin-7-yl]-3-methylpyrrolidin-1-yl}-2-hydroxy-3-methylbutan-1-one], which “PI3KA_Act Ki” value is on record?
Answer: 0.016 nM

Question: `CC(C)[C@H](O)C(=O)N1CC[C@](C)(N2CCc3c(-c4cnc(N)nc4)nc(N4CCOCC4)nc32)C1` [Example 272, (2S)-1-{(3S)-3-[4-(2-aminopyrimidin-5-yl)-2-(morpholin-4-yl)-5,6-dihydro-7H-pyrrolo[2,3-d]pyrimidin-7-yl]-3-methylpyrrolidin-1-yl}-2-hydroxy-3-methylbutan-1-one] was tested. Which “PI3KA_Act Ki” value did it give?
Answer: 0.022 nM

Question: Which “PI3KA_Act Ki” value does the source give for `CC(C)(O)C(=O)N1CC[C@](C)(N2CCc3c(-c4cnc(N)nc4)nc(N4CCOCC4)nc32)C1` [Example 275, 1-{(3S)-3-[4-(2-aminopyrimidin-5-yl)-2-(morpholin-4-yl)-5,6-dihydro-7H-pyrrolo[2,3-d]pyrimidin-7-yl]-3-methylpyrrolidin-1-yl}-2-hydroxy-2-methylpropan-1-one] here?
Answer: 0.030 nM

Question: With `CC(C)(O)CN1CC[C@@](C)(N2CCc3c(-c4cnc(N)nc4)nc(N4CCOCC4)nc32)C1` [Example 276, 1-{(3R)-3-[4-(2-aminopyrimidin-5-yl)-2-(morpholin-4-yl)-5,6-dihydro-7H-pyrrolo[2,3-d]pyrimidin-7-yl]-3-methylpyrrolidin-1-yl}-2-methylpropan-2-ol] as the compound, how does the “PI3KA_Act Ki” value read?
Answer: 0.182 nM

Question: With `COC(C)(C)C(=O)N1CC[C@](C)(N2CCc3c(-c4cnc(N)nc4)nc(N4CCOCC4)nc32)C1` [Example 278, 1-{(3S)-3-[4-(2-aminopyrimidin-5-yl)-2-(morpholin-4-yl)-5,6-dihydro-7H-pyrrolo[2,3-d]pyrimidin-7-yl]-3-methylpyrrolidin-1-yl}-2-methoxy-2-methylpropan-1-one] as the compound, how does the “PI3KA_Act Ki” value read?
Answer: <0.018 nM

Question: How did the “PI3KA_Act Ki” value turn out when `COCC(=O)N1CC[C@](C)(N2CCc3c(-c4cnc(N)nc4)nc(N4CCOCC4)nc32)C1` [Example 279, 1-{(3S)-3-[4-(2-aminopyrimidin-5-yl)-2-(morpholin-4-yl)-5,6-dihydro-7H-pyrrolo[2,3-d]pyrimidin-7-yl]-3-methylpyrrolidin-1-yl}-2-methoxyethanone] was run?
Answer: 0.027 nM

Question: How did the “PI3KA_Act Ki” value turn out when `COCC(=O)N1CC[C@@](C)(N2CCc3c(-c4cnc(N)nc4)nc(N4CCOCC4)nc32)C1` [Example 280, 1-{(3R)-3-[4-(2-aminopyrimidin-5-yl)-2-(morpholin-4-yl)-5,6-dihydro-7H-pyrrolo[2,3-d]pyrimidin-7-yl]-3-methylpyrrolidin-1-yl}-2-methoxyethanone] was run?
Answer: 0.154 nM

Question: With `CC(C)(N)CC(=O)N1CC[C@](C)(N2CCc3c(-c4cnc(N)nc4)nc(N4CCOCC4)nc32)C1.Cl` [Example 281, 3-amino-1-{(3S)-3-[4-(2-aminopyrimidin-5-yl)-2-(morpholin-4-yl)-5,6-dihydro-7H-pyrrolo[2,3-d]pyrimidin-7-yl]-3-methylpyrrolidin-1-yl}-3-methylbutan-1-one hydrochloride] as the compound, how does the “PI3KA_Act Ki” value read?
Answer: 0.024 nM

Question: How did the “PI3KA_Act Ki” value turn out when `CC(C)(N)C(=O)N1CC[C@@H](N2CCc3c(-c4cnc(N)nc4)nc(N4CCOCC4)nc32)C1.Cl` [Example 282, 2-amino-1-{(3R)-3-[4-(2-aminopyrimidin-5-yl)-2-(morpholin-4-yl)-5,6-dihydro-7H-pyrrolo[2,3-d]pyrimidin-7-yl]pyrrolidin-1-yl}-2-methylpropan-1-one hydrochloride] was run?
Answer: 4.040 nM

Question: How did the “PI3KA_Act Ki” value turn out when `CC(C)(N)C(=O)N1CC[C@H](N2CCc3c(-c4cnc(N)nc4)nc(N4CCOCC4)nc32)C1.Cl` [Example 283, 2-amino-1-{(3S)-3-[4-(2-aminopyrimidin-5-yl)-2-(morpholin-4-yl)-5,6-dihydro-7H-pyrrolo[2,3-d]pyrimidin-7-yl]pyrrolidin-1-yl}-2-methylpropan-1-one hydrochloride] was run?
Answer: 0.208 nM

Question: For `CC[C@@]1(N2CCc3c(-c4cnc(N)nc4)nc(N4CCOCC4)nc32)CCN(C(=O)C(C)(C)N)C1.Cl` [Example 284, 2-amino-1-{(3R)-3-[4-(2-aminopyrimidin-5-yl)-2-(morpholin-4-yl)-5,6-dihydro-7H-pyrrolo[2,3-d]pyrimidin-7-yl]-3-ethylpyrrolidin-1-yl}-2-methylpropan-1-one hydrochloride], which “PI3KA_Act Ki” value is on record?
Answer: 0.368 nM

Question: For `CC[C@]1(N2CCc3c(-c4cnc(N)nc4)nc(N4CCOCC4)nc32)CCN(C(=O)C(C)(C)N)C1.Cl` [Example 285, 2-amino-1-{(3S)-3-[4-(2-aminopyrimidin-5-yl)-2-(morpholin-4-yl)-5,6-dihydro-7H-pyrrolo[2,3-d]pyrimidin-7-yl]-3-ethylpyrrolidin-1-yl}-2-methylpropan-1-one hydrochloride], which “PI3KA_Act Ki” value is on record?
Answer: 0.089 nM

Question: `CC(C)[C@@H](N)C(=O)N1CC[C@@H](N2CCc3c(-c4cnc(N)nc4)nc(N4CCOCC4)nc32)C1.Cl` [Example 286, (2R)-2-amino-1-{(3R)-3-[4-(2-aminopyrimidin-5-yl)-2-(morpholin-4-yl)-5,6-dihydro-7H-pyrrolo[2,3-d]pyrimidin-7-yl]pyrrolidin-1-yl}-3-methylbutan-1-one hydrochloride] was tested. Which “PI3KA_Act Ki” value did it give?
Answer: 5.810 nM

Question: Which “PI3KA_Act Ki” value does the source give for `CC(C)[C@@H](N)C(=O)N1CC[C@H](N2CCc3c(-c4cnc(N)nc4)nc(N4CCOCC4)nc32)C1.Cl` [Example 287, (2R)-2-amino-1-{(3S)-3-[4-(2-aminopyrimidin-5-yl)-2-(morpholin-4-yl)-5,6-dihydro-7H-pyrrolo[2,3-d]pyrimidin-7-yl]pyrrolidin-1-yl}-3-methylbutan-1-one hydrochloride] here?
Answer: 0.462 nM

Question: With `CC(C)[C@H](N)C(=O)N1CC[C@](C)(N2CCc3c(-c4cnc(N)nc4)nc(N4CCOCC4)nc32)C1.Cl` [Example 288, (2S)-2-amino-1-{(3S)-3-[4-(2-aminopyrimidin-5-yl)-2-(morpholin-4-yl)-5,6-dihydro-7H-pyrrolo[2,3-d]pyrimidin-7-yl]-3-methylpyrrolidin-1-yl}-3-methylbutan-1-one hydrochloride] as the compound, how does the “PI3KA_Act Ki” value read?
Answer: 0.141 nM

Question: `CC(C)(N)C(=O)N1CC[C@@](C)(N2CCc3c(-c4cnc(N)nc4)nc(N4CCOCC4)nc32)C1.Cl` [Example 289, 2-amino-1-{(3R)-3-[4-(2-aminopyrimidin-5-yl)-2-(morpholin-4-yl)-5,6-dihydro-7H-pyrrolo[2,3-d]pyrimidin-7-yl]-3-methylpyrrolidin-1-yl}-2-methylpropan-1-one hydrochloride] was tested. Which “PI3KA_Act Ki” value did it give?
Answer: 0.075 nM

Question: How did the “PI3KA_Act Ki” value turn out when `CCC(C)(N)C(=O)N1CC[C@](C)(N2CCc3c(-c4cnc(N)nc4)nc(N4CCOCC4)nc32)C1.Cl` (stereo partly drawn) [Example 290, 2-amino-1-{(3S)-3-[4-(2-aminopyrimidin-5-yl)-2-(morpholin-4-yl)-5,6-dihydro-7H-pyrrolo[2,3-d]pyrimidin-7-yl]-3-methylpyrrolidin-1-yl}-2-methylbutan-1-one hydrochloride] was run?
Answer: <0.018 nM
